Remaining activity data for 4 molecules are collected here from publication PMC5564600 (Oncotarget, 2017).

Holding throughout (test): biochemical
Common to all, as to assay type: binding

Test [1] concerns the target T1, panel of 442 kinases (Homo sapiens, UniProt O43318).
T1 construct: purchased Ambit Biosciences (scanMAXX KINOMEscan)
T1 sequence (O43318 1-606): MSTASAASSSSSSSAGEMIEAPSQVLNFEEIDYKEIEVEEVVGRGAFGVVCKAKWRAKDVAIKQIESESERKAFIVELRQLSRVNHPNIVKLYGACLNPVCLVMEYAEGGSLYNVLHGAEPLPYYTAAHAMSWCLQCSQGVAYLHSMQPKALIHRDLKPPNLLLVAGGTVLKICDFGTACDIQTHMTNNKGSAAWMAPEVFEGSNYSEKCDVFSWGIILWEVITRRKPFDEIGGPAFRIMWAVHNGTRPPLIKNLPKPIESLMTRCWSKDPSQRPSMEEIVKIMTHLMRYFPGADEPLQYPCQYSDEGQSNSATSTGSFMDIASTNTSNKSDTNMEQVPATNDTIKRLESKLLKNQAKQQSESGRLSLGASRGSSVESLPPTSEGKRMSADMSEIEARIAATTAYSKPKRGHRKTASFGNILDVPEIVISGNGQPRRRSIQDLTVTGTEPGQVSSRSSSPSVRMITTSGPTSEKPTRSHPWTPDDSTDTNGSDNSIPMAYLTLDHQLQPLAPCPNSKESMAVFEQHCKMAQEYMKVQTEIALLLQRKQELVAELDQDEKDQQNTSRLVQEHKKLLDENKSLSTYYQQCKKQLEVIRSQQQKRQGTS
The settings on record: kinase TAK1; for remaining activity at 1 µM: read-out: TAK1 (% of control at 1 µM).

The target in test [2] is T2, panel of 442 kinases (Homo sapiens, UniProt P10721, D816V).
T2 construct: purchased Ambit Biosciences (scanMAXX KINOMEscan)
T2 sequence (P10721 26-976 D816V): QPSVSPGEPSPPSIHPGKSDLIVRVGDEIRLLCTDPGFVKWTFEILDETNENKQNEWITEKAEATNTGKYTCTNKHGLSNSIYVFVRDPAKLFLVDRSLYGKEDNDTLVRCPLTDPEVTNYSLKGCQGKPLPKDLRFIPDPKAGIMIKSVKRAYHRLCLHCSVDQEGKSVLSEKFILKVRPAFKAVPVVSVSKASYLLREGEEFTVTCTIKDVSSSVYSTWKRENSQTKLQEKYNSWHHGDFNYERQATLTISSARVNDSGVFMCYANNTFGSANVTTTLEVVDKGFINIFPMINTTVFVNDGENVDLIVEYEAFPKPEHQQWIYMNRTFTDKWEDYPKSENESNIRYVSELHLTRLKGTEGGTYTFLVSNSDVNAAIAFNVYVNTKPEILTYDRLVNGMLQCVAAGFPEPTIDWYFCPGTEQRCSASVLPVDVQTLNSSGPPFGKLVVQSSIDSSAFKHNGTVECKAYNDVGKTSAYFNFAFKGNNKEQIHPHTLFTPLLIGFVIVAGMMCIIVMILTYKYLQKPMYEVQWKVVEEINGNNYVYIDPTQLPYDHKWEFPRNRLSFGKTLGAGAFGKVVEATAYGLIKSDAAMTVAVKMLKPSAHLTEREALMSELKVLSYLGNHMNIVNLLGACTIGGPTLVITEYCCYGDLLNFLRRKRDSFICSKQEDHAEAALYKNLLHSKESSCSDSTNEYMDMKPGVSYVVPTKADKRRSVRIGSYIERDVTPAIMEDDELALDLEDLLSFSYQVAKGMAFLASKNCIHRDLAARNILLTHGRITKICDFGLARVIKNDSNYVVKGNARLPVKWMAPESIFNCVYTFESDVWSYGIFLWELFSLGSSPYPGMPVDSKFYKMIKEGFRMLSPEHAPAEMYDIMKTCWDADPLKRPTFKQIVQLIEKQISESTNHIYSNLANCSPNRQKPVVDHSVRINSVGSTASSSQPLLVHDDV
The settings on record: kinase KIT(D816V), second of two lines so named (r207); for remaining activity at 1 µM: read-out: % of control at 1 µM.

Test [3] has as its target T3, panel of 442 kinases (Homo sapiens, UniProt P22607, G697C).
T3 construct: purchased Ambit Biosciences (scanMAXX KINOMEscan)
As to conditions: FGFR3(G697C); for remaining activity at 1 µM: read-out: % of control at 1 µM.

For test [4], the target named is T4, panel of 442 kinases (Homo sapiens, UniProt Q02750).
T4 construct: purchased Ambit Biosciences (scanMAXX KINOMEscan)
T4 sequence (Q02750 whole entry): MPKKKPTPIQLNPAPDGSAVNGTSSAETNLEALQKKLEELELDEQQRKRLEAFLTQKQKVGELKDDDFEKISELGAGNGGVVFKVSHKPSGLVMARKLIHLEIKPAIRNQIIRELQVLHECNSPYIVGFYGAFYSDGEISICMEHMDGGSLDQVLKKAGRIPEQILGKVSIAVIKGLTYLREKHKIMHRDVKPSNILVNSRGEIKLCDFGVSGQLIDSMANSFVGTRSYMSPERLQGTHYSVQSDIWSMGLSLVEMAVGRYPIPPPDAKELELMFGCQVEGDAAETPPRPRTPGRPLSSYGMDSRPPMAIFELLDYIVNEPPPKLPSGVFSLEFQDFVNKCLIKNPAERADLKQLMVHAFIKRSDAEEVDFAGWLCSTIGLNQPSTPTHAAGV
The settings on record: kinase MEK1; for remaining activity at 1 µM: read-out: % of control at 1 µM.

The target in test [5] is T5, panel of 442 kinases (Homo sapiens, UniProt Q07002).
T5 construct: purchased Ambit Biosciences (scanMAXX KINOMEscan)
The settings on record: kinase PCTK3; for remaining activity at 1 µM: read-out: % of control at 1 µM.

Test [6] has as its target T6, panel of 442 kinases (Homo sapiens, UniProt Q13163).
T6 construct: purchased Ambit Biosciences (scanMAXX KINOMEscan)
T6 sequence (Q13163 1-448): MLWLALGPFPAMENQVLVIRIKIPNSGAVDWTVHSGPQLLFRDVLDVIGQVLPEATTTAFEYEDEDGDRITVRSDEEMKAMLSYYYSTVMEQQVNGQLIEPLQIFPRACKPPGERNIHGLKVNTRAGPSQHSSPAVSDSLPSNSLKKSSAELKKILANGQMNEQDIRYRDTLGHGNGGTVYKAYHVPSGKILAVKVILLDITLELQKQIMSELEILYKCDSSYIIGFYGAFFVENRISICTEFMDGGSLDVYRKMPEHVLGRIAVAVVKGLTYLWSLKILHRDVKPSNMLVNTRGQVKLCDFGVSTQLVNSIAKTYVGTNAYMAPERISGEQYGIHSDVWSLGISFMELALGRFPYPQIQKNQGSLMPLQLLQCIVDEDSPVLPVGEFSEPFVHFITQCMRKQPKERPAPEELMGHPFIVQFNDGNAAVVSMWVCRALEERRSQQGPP
As to conditions: kinase MEK5; for remaining activity at 1 µM: read-out: % of control at 1 µM.

The target of test [7] is T7, panel of 442 kinases (Homo sapiens, UniProt Q7KZI7).
T7 construct: purchased Ambit Biosciences (scanMAXX KINOMEscan)
T7 sequence (Q7KZI7 whole entry): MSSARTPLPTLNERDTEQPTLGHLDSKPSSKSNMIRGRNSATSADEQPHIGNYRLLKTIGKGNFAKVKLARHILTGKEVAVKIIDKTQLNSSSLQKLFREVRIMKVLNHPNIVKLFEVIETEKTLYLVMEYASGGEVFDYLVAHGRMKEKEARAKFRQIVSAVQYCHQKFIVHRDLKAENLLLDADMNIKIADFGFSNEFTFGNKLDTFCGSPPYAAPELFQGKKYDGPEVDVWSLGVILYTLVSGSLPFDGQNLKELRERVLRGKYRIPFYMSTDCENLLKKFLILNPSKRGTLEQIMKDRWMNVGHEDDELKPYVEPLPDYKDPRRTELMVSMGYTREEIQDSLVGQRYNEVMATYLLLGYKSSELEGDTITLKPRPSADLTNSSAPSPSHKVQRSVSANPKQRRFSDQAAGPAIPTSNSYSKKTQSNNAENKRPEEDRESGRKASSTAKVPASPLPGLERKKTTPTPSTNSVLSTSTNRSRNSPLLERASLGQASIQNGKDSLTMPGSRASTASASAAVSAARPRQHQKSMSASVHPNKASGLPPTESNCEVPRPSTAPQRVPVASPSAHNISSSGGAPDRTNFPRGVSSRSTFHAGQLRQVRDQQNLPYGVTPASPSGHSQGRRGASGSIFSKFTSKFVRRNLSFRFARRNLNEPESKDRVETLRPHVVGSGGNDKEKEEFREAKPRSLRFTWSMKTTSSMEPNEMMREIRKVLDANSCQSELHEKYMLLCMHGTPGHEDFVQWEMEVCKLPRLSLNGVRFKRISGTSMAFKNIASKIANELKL
As to conditions: kinase MARK2; for remaining activity at 1 µM: read-out: % of control at 1 µM.

Test [8] has as its target T8, panel of 442 kinases (Homo sapiens, UniProt Q9BX84).
T8 construct: purchased Ambit Biosciences (scanMAXX KINOMEscan)
As to conditions: kinase TRPM6; for remaining activity at 1 µM: read-out: TRPM6 (% of control at 1 µM).

[9] abbreviates: 10 µM, read-out: % of control at 10 µM.

T8 sequence (Q9BX84 whole entry): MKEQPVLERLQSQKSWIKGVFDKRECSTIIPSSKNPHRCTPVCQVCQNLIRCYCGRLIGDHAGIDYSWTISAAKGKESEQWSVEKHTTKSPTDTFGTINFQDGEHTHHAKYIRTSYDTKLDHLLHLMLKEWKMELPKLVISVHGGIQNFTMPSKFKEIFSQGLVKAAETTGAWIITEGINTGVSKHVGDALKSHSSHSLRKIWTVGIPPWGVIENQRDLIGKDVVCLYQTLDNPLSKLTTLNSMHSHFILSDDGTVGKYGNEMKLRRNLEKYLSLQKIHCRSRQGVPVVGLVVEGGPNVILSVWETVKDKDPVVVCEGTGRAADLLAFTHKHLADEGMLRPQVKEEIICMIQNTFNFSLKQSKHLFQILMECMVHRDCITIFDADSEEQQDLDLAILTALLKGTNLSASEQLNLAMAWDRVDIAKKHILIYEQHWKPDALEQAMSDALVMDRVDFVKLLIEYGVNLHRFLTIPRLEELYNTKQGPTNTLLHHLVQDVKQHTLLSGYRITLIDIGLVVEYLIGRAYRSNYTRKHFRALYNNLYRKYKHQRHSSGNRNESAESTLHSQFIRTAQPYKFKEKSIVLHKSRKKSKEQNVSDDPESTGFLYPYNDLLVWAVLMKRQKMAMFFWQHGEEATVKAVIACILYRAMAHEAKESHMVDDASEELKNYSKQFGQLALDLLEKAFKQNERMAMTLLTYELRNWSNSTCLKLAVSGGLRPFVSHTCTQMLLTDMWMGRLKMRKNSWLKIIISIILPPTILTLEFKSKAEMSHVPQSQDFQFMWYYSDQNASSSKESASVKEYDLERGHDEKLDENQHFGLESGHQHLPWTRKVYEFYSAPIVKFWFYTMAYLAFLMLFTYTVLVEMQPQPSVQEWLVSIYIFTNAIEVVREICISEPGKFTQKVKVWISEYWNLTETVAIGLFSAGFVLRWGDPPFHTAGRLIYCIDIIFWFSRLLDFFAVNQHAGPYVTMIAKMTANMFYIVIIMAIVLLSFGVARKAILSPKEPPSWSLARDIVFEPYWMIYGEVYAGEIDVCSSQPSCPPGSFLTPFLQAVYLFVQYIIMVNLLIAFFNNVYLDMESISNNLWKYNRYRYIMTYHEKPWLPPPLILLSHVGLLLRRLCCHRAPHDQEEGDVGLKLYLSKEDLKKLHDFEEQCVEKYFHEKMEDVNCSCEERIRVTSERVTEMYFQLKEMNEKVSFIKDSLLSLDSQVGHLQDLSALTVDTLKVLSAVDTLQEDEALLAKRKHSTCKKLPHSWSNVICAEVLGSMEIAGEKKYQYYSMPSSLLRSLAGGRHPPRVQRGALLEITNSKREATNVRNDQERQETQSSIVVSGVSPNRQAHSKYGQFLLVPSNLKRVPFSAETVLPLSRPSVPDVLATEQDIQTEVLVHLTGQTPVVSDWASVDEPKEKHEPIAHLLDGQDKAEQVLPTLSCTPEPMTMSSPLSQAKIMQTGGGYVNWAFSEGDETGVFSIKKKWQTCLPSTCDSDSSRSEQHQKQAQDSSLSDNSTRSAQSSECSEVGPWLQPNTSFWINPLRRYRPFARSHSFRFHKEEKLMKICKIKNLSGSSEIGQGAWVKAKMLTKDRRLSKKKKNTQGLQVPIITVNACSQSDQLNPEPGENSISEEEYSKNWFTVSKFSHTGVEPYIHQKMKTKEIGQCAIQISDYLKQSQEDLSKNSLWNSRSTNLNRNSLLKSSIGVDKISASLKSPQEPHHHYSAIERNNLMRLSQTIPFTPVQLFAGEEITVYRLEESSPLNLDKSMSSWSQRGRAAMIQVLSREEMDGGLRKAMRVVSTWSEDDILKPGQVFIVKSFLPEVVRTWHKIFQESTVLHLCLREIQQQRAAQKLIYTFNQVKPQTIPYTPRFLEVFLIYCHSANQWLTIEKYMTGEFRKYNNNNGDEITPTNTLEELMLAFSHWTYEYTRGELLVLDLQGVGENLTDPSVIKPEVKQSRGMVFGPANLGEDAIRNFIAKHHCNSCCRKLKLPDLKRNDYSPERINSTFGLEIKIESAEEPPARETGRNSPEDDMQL
T3 sequence (P22607 23-806 G697C): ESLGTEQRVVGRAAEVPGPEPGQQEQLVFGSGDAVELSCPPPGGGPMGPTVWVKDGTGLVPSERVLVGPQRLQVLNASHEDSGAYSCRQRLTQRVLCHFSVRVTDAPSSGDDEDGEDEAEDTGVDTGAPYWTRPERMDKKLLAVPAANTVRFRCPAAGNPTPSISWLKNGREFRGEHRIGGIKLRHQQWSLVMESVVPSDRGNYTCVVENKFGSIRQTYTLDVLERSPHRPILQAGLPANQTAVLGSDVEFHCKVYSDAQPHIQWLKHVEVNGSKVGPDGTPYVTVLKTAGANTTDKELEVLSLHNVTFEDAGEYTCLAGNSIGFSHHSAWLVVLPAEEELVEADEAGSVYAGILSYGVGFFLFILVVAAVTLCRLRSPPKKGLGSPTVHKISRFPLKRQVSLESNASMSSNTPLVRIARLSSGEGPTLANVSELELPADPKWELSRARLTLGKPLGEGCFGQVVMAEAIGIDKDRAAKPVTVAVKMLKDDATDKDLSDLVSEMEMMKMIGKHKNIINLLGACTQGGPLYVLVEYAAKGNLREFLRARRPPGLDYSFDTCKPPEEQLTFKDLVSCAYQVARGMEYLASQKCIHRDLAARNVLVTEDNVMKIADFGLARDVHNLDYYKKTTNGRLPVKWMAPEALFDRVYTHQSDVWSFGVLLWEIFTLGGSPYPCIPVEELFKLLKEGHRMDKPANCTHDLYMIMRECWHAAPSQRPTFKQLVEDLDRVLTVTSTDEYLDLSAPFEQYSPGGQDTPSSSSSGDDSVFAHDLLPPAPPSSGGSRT

With `COc1ncc(-c2ccc3nccc(-c4ccnnc4)c3c2)cc1NS(=O)(=O)c1ccc(F)cc1F` [Omipalisib], the remaining activity at 1 µM on panel of 442 kinases [1] came out at 82%; on panel of 442 kinases [2], 86%; on panel of 442 kinases [3] it was 68%; at panel of 442 kinases [4], 100%; on panel of 442 kinases [5], 100%; at panel of 442 kinases [6], 69%. Besides, the remaining activity at 1 µM on panel of 442 kinases [7] and on panel of 442 kinases [8] was 100% throughout.
For the molecule `Cn1c(=O)n(-c2ccc(C(C)(C)C#N)cc2)c2c3cc(-c4cnc5ccccc5c4)ccc3ncc21` [Dactolisib, 2-methyl-2-[4-(3-methyl-2-oxo-8-quinolin-3-yl-2,3-dihydroimidazo[4,5-c]quinolin-1-yl)-phenyl] propionitrile], the remaining activity at 1 µM was 55% on panel of 442 kinases [1]; 59% at panel of 442 kinases [2]; 90% on panel of 442 kinases [3]; 94% at panel of 442 kinases [4]; 94% on panel of 442 kinases [5]; 42% on panel of 442 kinases [6]. The remaining activity at 1 µM at panel of 442 kinases [7] turned out to be 65%; at panel of 442 kinases [8], 62%.
Regarding `Nc1cc(C(F)(F)F)c(-c2cc(N3CCOCC3)nc(N3CCOCC3)n2)cn1` [Buparlisib], the remaining activity at 1 µM at panel of 442 kinases [1] amounted to 100%; on panel of 442 kinases [2] it was 100%; at panel of 442 kinases [3] it was 86%; on panel of 442 kinases [4], 100%; at panel of 442 kinases [5] it was 100%; on panel of 442 kinases [6], 88%. Further, the remaining activity at 1 µM on panel of 442 kinases [7] was determined as 100%; on panel of 442 kinases [8], 76%. The remaining activity at 10 µM on panel of 442 kinases [1] (10 µM, read-out: TAK1 (% of control at 10 µM)) amounted to 100%; at panel of 442 kinases [2] (setting [9]), 100%; on panel of 442 kinases [3] (setting [9]), 100%; at panel of 442 kinases [4] (setting [9]) it was 100%; at panel of 442 kinases [5] (setting [9]), 87%; at panel of 442 kinases [6] (setting [9]) it was 85%. In addition, the remaining activity at 10 µM at panel of 442 kinases [7] (setting [9]) came out at 71%; at panel of 442 kinases [8] (10 µM, read-out: TRPM6 (% of control at 10 µM)) it was 75%.
For the molecule `FC(F)c1nc2ccccc2n1-c1nc(N2CCOCC2)nc(N2CCOCC2)n1` [ZSTK474, 2-(difluoromethyl)-1-[4,6-di(4-morpholinyl)-1,3,5-triazin-2-yl]-1H-benzimidazole], the remaining activity at 1 µM at panel of 442 kinases [1] was 68%; on panel of 442 kinases [2] it was 100%; at panel of 442 kinases [3] it was 100%; at panel of 442 kinases [4] it was 100%; on panel of 442 kinases [5] it was 100%; at panel of 442 kinases [6], 99%. Further, the results for the remaining activity at 1 µM on panel of 442 kinases [7] and on panel of 442 kinases [8] were 57% and 74%, respectively.
